Measurements as given in patent US8545834B2, “G-substrate for the treatment and prevention of parkinson's disease” (The McLean Hospital Corporation, priority 2007, dated 2013).

Experiments:
A9 DA neurons = format: in vivo, rat; conditions: rats, intra-striatal 6-OHDA
Text: Retrograde 6-OHDA lesioning within the striatum is a well-established method of creating progressive degeneration of A9 DA neurons. The loss of TH immunoreactivity reflects actual loss of DA neurons (Sauer, 1994).
The in vivo neuroprotective effects of G-substrate against 6-OHDA-induced toxicity was examined by injecting 6-OHDA into the corpus striatum of rats which previously had either G-substrate or control genes (empty vector or YFP) delivered to the midbrain using the lentivirus as described above. 6-OHDA induced approximately an 80% loss of TH-positive neurons in the midbrain (FIG. 12Q) and complete loss of TH immunoreactivity in the striatum (data not shown). The severity of the striatal insult in this paradigm precluded our ability to usefully measure protection of striatal nerve terminals. […] Furthermore, most of the surviving TH-positive neurons in lenti G-substrate-transduced rats were strongly G-substrate-positive (FIGS. 12G-12L).
Rats received two 2.75 μl stereotaxic injections of either lenti-empty vector+lenti-eGFP (n=19), lenti-G substrate+lenti-eGFP (n=19), or lenti-YFP (n=14) and delivered at a rate of 0.2 μl/min using microinfusion pumps (Stoelting Co, Wood Dale, Ill.) with 10 min wait times after each injection. Lenti-eGFP was added to each condition, excluding the YFP condition, to serve as an exogenous marker for surgical targeting (0.5 μl of the total 5.5 μl A volume). SN injection coordinates were as follows: site 1: AP −4.8, ML −2.0, DV −7.2; site 2: AP −5.5, ML −1.8, DV −7.2; and tooth bar set at −3.3. Virus titers (p24) were as follows: G substrate, 60 ng/μl; empty vector, 60 ng/μl; eGFP, 83 ng/μl; and YFP, 60 ng/μl.
Two weeks following lentiviral injection, animals (lenti-empty vector+lenti-eGFP (n=9), lenti-G substrate+lenti-eGFP (n=9), or lenti-YFP (n=14)) received three 2.5 μl stereotaxic injections of 3.0 μg/μl 6-OHDA (total dose=22.5 μg 6-OHDA) delivered at a rate of 0.5 μl/min and 5 min wait times after each injection. Striatum injection coordinates were as follows: site 1: AP +1.3, ML −2.8, DV −4.5; site 2: AP +0.2, ML, −3.0, DV −5.0; site 3: AP −0.6, ML −4.0, DV −5.5; and tooth bar set at −3.3. The lesion was allowed to progress for 3 weeks after which animals were sacrificed for post mortem analyses.
Brains were cut frozen in the coronal plane at a thickness of 40 μm on a sliding microtome and six series of sections were stored in cryoprotectant. Two full series of sections were processed for visualization of tyrosine hydroxylase (TH) via the biotin-labeled antibody procedure. Briefly, following several washes in a PBS solution containing 0.01% Triton X-100 (PBS-T), endogenous peroxidase was quenched in a 3% hydrogen peroxide solution and background staining was then inhibited in a 5% normal goat serum solution. […]

PP2A = PP2A activity assay (immunoprecipitated PP2A, phosphopeptide, Malachite Green); format: cell-based, human
Description: PP2A activity was measured in control BE(2)-M17 cells at various incubation times (t=0, 1, 2, 5 and 8 hr) after exposure to 50 μM 6-OHDA. […] Control, wild-type, and T123A G-substrate-expressing cells were then exposed to 50 μM 6-OHDA for 2 hours before measurement of PP2A activity.
PP2A activity was measured using a non-radioactive kit according to the manufacturer's instruction (Upstate Biotechnologies, Lake Placid, N.Y.). After 50 μM 6-OHDA exposure with various times, cells were harvested in 20 mM imidazole-HCl, 2 mM EDTA, 2 mM EGTA, pH7 with a protease inhibitor cocktail (Sigma). Protein concentrations of the lysates were measured using BCA assay (Pierce) and 500 μg of protein was immunoprecipitated using an anti-PP2A catalytic subunit antibody and protein A-Sepharose beads. Immunoprecipitated PP2A was then incubated with phosphopeptide (K-R-pT-I-R-R (SEQ ID NO: 8)) for 10 min at 37° C. Dephosphorylation of the phosphopeptide was assayed spectrophotometrically at 650 nm using Malachite Green.

VMAT2 = assay: Western blot of VMAT2 expression in M17 cells; format: cell-based, human; conditions: naïve M17 cells
Text: BE(2)-M17 cells were used to investigate the interaction between G-substrate and α-synuclein, a known risk factor and possible causative agent in Parkinson's disease. […] Likewise, VMAT2 expression was reduced in naïve M17 cells following the reduction in endogenous G-substrate using siRNA (FIG. 10C).
M17 cells transiently and stably overexpression α-synuclein were transfected using the G-substrate lentiviral vector described above.
The PP2A regulation of VMAT 2 was investigated in M17 cells. PP2A levels were reduced using RNAi. […] The effect of PP2A inhibition was not generalized to other dopaminergic markers tested.
Cells and tissue samples were collected from and suspended in lysis buffer containing: 50 mM Tris-HCl, 0.15 M NaCl, 0.32 M sucrose, 1.0 mM EDTA, and 1% NP-40. In addition, phosphatase inhibitors I and II (1:100) and protease inhibitors (1:100) were added fresh prior to cell lysis (Sigma-Aldrich, P2850, P5276, and P8340 respectively). Following cell lysis, the homogenate was centrifuged, a portion of the supernatant was reserved for protein determination (BCA Assay, Pierce, Rockford, Ill.) and the remaining was stored at −20° C. 20 μg (in vitro cell preps) and 50 μg (tissue dissections) of solubilized protein were mixed 1:1 with sample buffer and boiled for 5 min. The samples and molecular weight standards were separated using the Criterion precast 10% SDS-polyacrylamide gel system (Bio-Rad, Hercules, Calif.). After electrophoresis, the proteins were electrically transferred to PVDF membranes at 100 V for 30 min. After transfer, blots were incubated in Tris-buffered saline with 0.1% Tween 20 (TBS-T) containing 5% BSA. Subsequently, blots were incubated with the following antibodies at 4° C. overnight (1:1000 unless otherwise stated): phospho-Akt (ser473), phospho-GSK3β (ser9), phospho-erk1/2, and phospho-p38 (Cell Signaling Technologies, Danvers, Mass.). HRP-conjugated secondary antibodies were then applied and immunoreactive bands were visualized with chemiluminescence (Amersham Biosciences, Arlington Heights, Ill.) and exposed onto film. Immunoblots were then stripped and re-probed for the expression of the total protein (Cell Signaling) and beta-actin (1:10 000) (Abcam) to serve as a loading control. Optical density analysis (NIH image) was used to determine the relative abundance of protein in each sample. The optical densities of the phospho epitopes were standardized to their respective total proteins and this value was used in the statistical analyses.

BE(2)-M17 cells = assay: In vitro protection assays (MTS cell viability, LDH release) against neurotoxins; format: cell-based, human; conditions: for protection against 50 μM 6-OHDA exposure by PP2A inhibition (MTS cellular viability): BE(2)-M17 cells without elevated G-substrate, normalized to control
Description: Viability of the M17 cells was assessed following exposure to a variety of neurotoxins, each representing different aspects of PD pathology. 6-hydroxydopamine (6-OHDA) causes oxidative stress. MG-132 induces proteasome inhibition. And, MPP+ causes mitochondrial dysfunction by inhibiting Complex I. Cytotoxicity of M17 cells was determined using both cell viability assays and LDH release. G-substrate overexpression in M17 cells was confirmed by Western blot analysis (FIG. 3A) and by immunocytochemistry (FIG. 3B).
BE(2)-M17 cells were transduced with lentivirus expressing control or G-substrate with a multiplicity of infection 15. Cells were grown in Optimem™ (Invitrogen, Carlsbad, Calif.) supplemented with 10% heat-inactivated fetal calf serum (Hyclone, Logan, Utah), nonessential amino acid and sodium pyruvate. Cells were maintained at 37° C., in 5% CO2 humid atmosphere. For the bioassay, cells were plated in 96 well plates at 5000 per well. The next day, cells were treated with various concentrations of 6-OHDA (Sigma), MG-132 (Calbiochem) and MPP+ (Sigma) for 20 hrs. The supernatant was used to determine cytotoxicity using LDH release assay kit (Roche, Indianapolis, Ind.) and the cells remaining on the plate was used to determine cell viability using MTS based solution, CellTiter 96 AQueous One™ solution cell proliferation assay (Promega, Madison, Wis.).
Three different siRNAs for human G-substrate as described herein, a negative control siRNA, and a validated Akt siRNA (Ambion; Austin, Tex.) were used. Cells were plated in 96 well plates at 5000 per well with siRNAs and siPORT NeoFX transfection agent (Ambion, Austin, Tex.). After 48 hrs of incubation with siRNAs, each of the toxicants (6-OHDA, MG-132 or MPP+) were applied to the cells. Cell viability and cytotoxicity was measured after 20 hrs of toxin exposure.

[1] = lentiviral overexpression in BE(2)-M17 cells, toxin 20 hrs, compared to control

NCCc1cc(O)c(O)cc1O [6-OHDA, 6-hydroxydopamine, reference compound]
loss of TH-positive neurons in the midbrain (A9 DA neurons; 3 weeks): ~80% | loss of TH immunoreactivity in the striatum (A9 DA neurons; data not shown): complete loss | PP2A activity compared to basal activity (PP2A; control BE(2)-M17 cells, 50 μM 6-OHDA, t=1, 2, 8 hr (all times except t=5 hr)): significantly increased

COC[C@@H]([C@H](O)[C@H](O)C(=O)NCC[C@H](C)c1nc(/C=C/C[C@@H]2O[C@]3(C[C@@H](O)[C@@H]2C)O[C@H]([C@H](C[C@H](O)[C@H](C)[C@H](O)[C@H](C)/C=C(C)/C(C)=C/C=C/C(C)=C\C#N)OC)[C@H](OP(=O)(O)O)C3(C)C)co1)N(C)C [calyculin A, reference compound]
VMAT2 expression (VMAT2): increased VMAT2 levels | protection against 50 μM 6-OHDA exposure by PP2A inhibition (MTS cellular viability) (BE(2)-M17 cells): none of these methods alone were protective

C=C1[C@@H](O)[C@@H]2O[C@]3(CC[C@H](/C=C/[C@@H](C)[C@@H]4CC(C)=C[C@@]5(O[C@H](C[C@@](C)(O)C(=O)O)CC[C@H]5O)O4)O3)CC[C@H]2O[C@@H]1[C@@H](O)C[C@H](C)[C@H]1O[C@@]2(CCCCO2)CC[C@H]1C [okadaic acid, reference compound]
VMAT2 expression (VMAT2): increased VMAT2 levels | protection against 50 μM 6-OHDA exposure by PP2A inhibition (MTS cellular viability) (BE(2)-M17 cells): none of these methods alone were protective

T123A mutant G-substrate: mutant G-substrate with Thr to Ala point mutation at Thr 123 (T119A of human), overexpressed from a lentiviral vector
PP2A activity in G-substrate-expressing cells (PP2A; BE(2)-M17 cells exposed to 50 μM 6-OHDA for 2 hours, versus control cells): reduced compared to controls, but not reduced as much as observed in the wild-type G-substrate-expressing cells | protection against 6-OHDA and MG-132 compared to the wild-type (BE(2)-M17 cells; lentiviral overexpression in BE(2)-M17 cells): significantly less effective | protection against MPP+-induced toxicity (cell viability, LDH release) (BE(2)-M17 cells; lentiviral overexpression in BE(2)-M17 cells, toxin 20 hrs): neither wild-type nor T123A mutant G-substrate overexpression was protective | neuroprotection against 6-OHDA toxicity (cell viability, LDH release) (BE(2)-M17 cells; [1]): neuroprotective | neuroprotection against MG-132 toxicity (cell viability, LDH release) (BE(2)-M17 cells; [1]): neuroprotective
